In ChEMBL document CHEMBL1201862, “PubChem BioAssay data set” (2004):
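Cells were grown in 96-well plates and exposed to each compound for 48 hours at five concentrations; endpoints were interpolated linearly between bracketing concentrations, or set to the highest concentration if not reached. At the GI50, growth is halved.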 Active and inactive are the calls of the source. Cut-off read from the data, not from the text of the source: active = GI50 up to about 1.1 µM and inactive = higher.

What was measured:
Assay in all cases: NCI tumour cell line growth inhibition, 48 h
[1] = tested on: 786-0
[2] = tested on: A498
[3] = tested on: A549
[4] = tested on: CAKI-1
[5] = tested on: CCRF-CEM
[6] = tested on: DLD-1
[7] = tested on: DMS-114
[8] = tested on: DMS-273
[9] = tested on: EKVX
[10] = tested on: HCT-116
[11] = tested on: HCT-15
[12] = tested on: HL-60
[13] = tested on: HOP-18
[14] = tested on: HOP-62
[15] = tested on: HOP-92
[16] = tested on: HT-29
[17] = tested on: IGROV-1
[18] = tested on: K562
[19] = tested on: KM-20L2
[20] = tested on: KM12
[21] = tested on: LOX IMVI
[22] = tested on: LXFL 529
[23] = tested on: M14
[24] = tested on: M19-MEL
[25] = tested on: MOLT-4
[26] = tested on: Malme-3M
[27] = tested on: NCI-H23
[28] = tested on: NCI-H460
[29] = tested on: NCI-H522
[30] = tested on: OVCAR-3
[31] = tested on: OVCAR-5
[32] = tested on: OVCAR-8
[33] = tested on: RPMI-8226
[34] = tested on: SF-268
[35] = tested on: SF-295
[36] = tested on: SF-539
[37] = tested on: SK-MEL-28
[38] = tested on: SK-MEL-2
[39] = tested on: SK-MEL-5
[40] = tested on: SK-OV-3
[41] = tested on: SNB-19
[42] = tested on: SNB-78
[43] = tested on: SR
[44] = tested on: SW-620
[45] = tested on: TK-10
[46] = tested on: U-251
[47] = tested on: UACC-257
[48] = tested on: UACC-62
[49] = tested on: UO-31
[50] = tested on: XF498
[51] = tested on: ACHN
[52] = tested on: BT-549
[53] = tested on: COLO 205
[54] = tested on: DU-145
[55] = tested on: HCC 2998
[56] = tested on: Hs-578T
[57] = tested on: MCF7
[58] = tested on: MDA-MB-231
[59] = tested on: MDA-MB-435
[60] = tested on: MDA-N
[61] = tested on: NCI-H226
[62] = tested on: NCI/ADR-RES
[63] = tested on: OVCAR-4
[64] = tested on: PC-3
[65] = tested on: RXF 393
[66] = tested on: SN12C
[67] = tested on: SNB-75
[68] = tested on: T47D

For CC(C)(Oc1ccc2c(=O)cc(-c3ccc(Cl)cc3)oc2c1)C(=O)Nc1c(Cl)cccc1Cl, the GI50 [1] was > 100 µM (inactive), the GI50 [2] was > 100 µM (inactive) and the GI50 [3] was > 100 µM (inactive). For the same compound, the GI50 [4] was > 100 µM (inactive), the GI50 [5] was > 100 µM (inactive) and the GI50 [6] was > 100 µM (inactive). The GI50 [7] was > 100 µM (inactive), the GI50 [8] was > 100 µM (inactive) and the GI50 [9] was > 100 µM (inactive). For the same compound, the GI50 [10] was > 100 µM (inactive), the GI50 [11] was 24.2 µM and the GI50 [12] was > 100 µM (inactive). For the same compound, the GI50 [13] was > 100 µM (inactive), the GI50 [14] was > 100 µM (inactive) and the GI50 [15] was > 100 µM (inactive). For the same compound, the GI50 [16] was > 100 µM (inactive), the GI50 [17] was > 100 µM (inactive) and the GI50 [18] was 5.98 µM (inactive). The GI50 [19] was > 100 µM (inactive), the GI50 [20] was > 100 µM (inactive) and the GI50 [21] was > 100 µM (inactive). The GI50 [22] was > 100 µM (inactive), the GI50 [23] was > 100 µM (inactive) and the GI50 [24] was > 100 µM (inactive). The GI50 [25] was > 100 µM (inactive), the GI50 [26] was > 100 µM (inactive) and the GI50 [27] was > 100 µM (inactive). The GI50 [28] was > 100 µM (inactive), the GI50 [29] was > 100 µM (inactive) and the GI50 [30] was > 100 µM (inactive). The GI50 [31] was > 100 µM (inactive), the GI50 [32] was > 100 µM (inactive) and the GI50 [33] was > 100 µM (inactive). For the same compound, the GI50 [34] was > 100 µM (inactive), the GI50 [35] was > 100 µM (inactive) and the GI50 [36] was > 100 µM (inactive). The GI50 [37] was > 100 µM (inactive), the GI50 [38] was > 100 µM (inactive) and the GI50 [39] was 96.6 µM (inactive). The GI50 [40] was > 100 µM (inactive), the GI50 [41] was > 100 µM (inactive) and the GI50 [42] was > 100 µM (inactive). For the same compound, the GI50 [43] was 79.3 µM (inactive), the GI50 [44] was > 100 µM (inactive) and the GI50 [45] was > 100 µM (inactive). For the same compound, the GI50 [46] was > 100 µM (inactive), the GI50 [47] was > 100 µM (inactive) and the GI50 [48] was > 100 µM (inactive). The GI50 [49] was 25 µM (inactive) and the GI50 [50] was > 100 µM (inactive).

In the case of c1cc2n(n1)CCN2, the GI50 [1] is reported as 1120 µM (inactive), the GI50 [2] is reported as 1150 µM (inactive) and the GI50 [3] is reported as 1050 µM (inactive). For the same compound, the GI50 [51] was 151 µM (inactive), the GI50 [52] was 4840 µM (inactive) and the GI50 [4] was 740 µM (inactive). For the same compound, the GI50 [5] was 186 µM (inactive), the GI50 [53] was 3680 µM (inactive) and the GI50 [6] was 5420 µM (inactive). The GI50 [7] was 1560 µM (inactive), the GI50 [8] was 262 µM (inactive) and the GI50 [54] was 3320 µM (inactive). For the same compound, the GI50 [9] was 1770 µM (inactive), the GI50 [55] was 1690 µM (inactive) and the GI50 [10] was 1950 µM (inactive). The GI50 [11] was 2140 µM, the GI50 [12] was 238 µM (inactive) and the GI50 [13] was 4030 µM (inactive). The GI50 [14] was 3720 µM (inactive), the GI50 [15] was 1590 µM (inactive) and the GI50 [16] was 3130 µM (inactive). For the same compound, the GI50 [56] was > 1470 µM (inactive), the GI50 [17] was 7380 µM (inactive) and the GI50 [18] was 2000 µM (inactive). For the same compound, the GI50 [19] was 2970 µM (inactive), the GI50 [20] was 1810 µM (inactive) and the GI50 [21] was 662 µM (inactive). The GI50 [23] was 486 µM (inactive), the GI50 [24] was 6870 µM (inactive) and the GI50 [57] was 828 µM (inactive). The GI50 [58] was > 1500 µM (inactive), the GI50 [59] was 3940 µM (inactive) and the GI50 [60] was 4680 µM (inactive). The GI50 [25] was 348 µM (inactive), the GI50 [26] was 3000 µM (inactive) and the GI50 [61] was 1960 µM (inactive). The GI50 [27] was 1060 µM (inactive), the GI50 [28] was 820 µM (inactive) and the GI50 [29] was 2300 µM (inactive). For the same compound, the GI50 [62] was 561 µM (inactive), the GI50 [30] was 2280 µM (inactive) and the GI50 [63] was 5550 µM (inactive). For the same compound, the GI50 [31] was 4300 µM (inactive), the GI50 [32] was 875 µM (inactive) and the GI50 [64] was 1160 µM (inactive). The GI50 [33] was 1890 µM (inactive), the GI50 [65] was 1390 µM (inactive) and the GI50 [34] was 1550 µM (inactive). The GI50 [35] was 348 µM (inactive), the GI50 [36] was 646 µM (inactive) and the GI50 [37] was 7740 µM (inactive). For the same compound, the GI50 [38] was 6460 µM (inactive), the GI50 [39] was 847 µM (inactive) and the GI50 [40] was 3040 µM (inactive). The GI50 [66] was 1240 µM (inactive), the GI50 [41] was 4030 µM (inactive) and the GI50 [67] was 3400 µM (inactive). For the same compound, the GI50 [42] was 4740 µM (inactive), the GI50 [43] was 733 µM (inactive) and the GI50 [44] was 3430 µM (inactive). For the same compound, the GI50 [68] was 347 µM (inactive), the GI50 [45] was > 1490 µM (inactive) and the GI50 [46] was 706 µM (inactive). The GI50 [47] was 5980 µM (inactive), the GI50 [48] was 374 µM (inactive) and the GI50 [49] was 1320 µM (inactive). For the same compound, the GI50 [50] was 431 µM (inactive).
